Counter-ions that a name gives are not always drawn.
System: pre-diabetic and type 2 diabetes mellitus patients
Assay: Clinical trial: ketone level in urine
Type: in vivo, human
Conditions: for Effect on urine ketone body level (in words) / Post-treatment ketone level in urine - pre-treatment ketone level in urine, mean value: 16 weeks of treatment; for Post-treatment ketone level in urine - pre-treatment ketone level in urine, mean value / Post-treatment ketone level in urine, mean value / Pre-treatment ketone level in urine, mean value: FAS; for Post-treatment ketone level in urine, mean value: after 16 weeks of treatment; for Pre-treatment ketone level in urine, mean value: baseline before treatment
Experimental: From June 2015 to October 2018, a double-blind, randomized, and parallel-controlled trial, studying the effects of the combined use of Bifidobacterium and berberine on pre-diabetic and type 2 diabetes mellitus patients, was conducted in 10 research centers in Xi'an, Yan'an and Shangluo of Shaanxi province, etc., including the First Affiliated Hospital of the Fourth Military Medical University. The trial included an enrollment stage of 2 weeks and a treatment stage of 16 weeks. After passing the first visit 1 (see V1 in Table 1), the subjects entered the enrollment stage, i.e., 2 weeks of lifestyle intervention, followed by a re-screening (see V2 in Table 1). The subjects were subjected to a 16-week course of treatment after passing the screening. See Table 1 for the detailed screening parameters. After the enrollment stage, the baseline data of the 300 successfully enrolled subjects were collected. Meanwhile, the subjects started to receive lifestyle guidance, and were randomly divided into four groups for 16 weeks of treatments. 1) Bifidobacterium group: the subjects were administered with Bifidobacterium capsules (Livzon Pharmaceutical Group Inc., batch no.: 20141013), 0.35 g/capsule, each capsule containing 50,000,000 viable bacteria (Bifidobacterium adolescentis DM8504), 2 capsules/time, 2 times/day, plus berberine placebo tablets (Northeast Pharma Group Shenyang First Pharma Co., Ltd., Lot no.: 20150101, containing 80.2% microcrystalline cellulose, 9.4% pregelatinized starch, 6.4% sodium carboxymethyl starch, 1% magnesium stearate, and 3% copovidone), 0.1 g/tablet, 5 tablets/time, 2 times/day. 2) Berberine group: the subjects were administered with berberine tablets (Northeast Pharma Group Shenyang First Pharma Co., Ltd., Lot no.: 130917, each tablet weighted 0.165 g and contained 0.1 g active berberine ingredient (berberine hydrochloride), with the same excipients as the placebo tablets), 5 tablets/time, 2 times/day, plus Bifidobacterium placebo capsules (Livzon Pharmaceutical Group Inc., Lot no.: 141001, specifically containing 0.348 g spray-dried lactose, and 0.002 g magnesium stearate), 0.35 g/capsule, 2 capsules/time, 2 times/day. 3) Combination Group: the subjects were administered with Bifidobacterium capsules, 0.35 g/capsule, each capsule containing 50,000,000 viable bacteria (B. adolescentis DM8504), 2 capsules/time, 2 times/day, plus berberine tablets, 0.1 g/tablet, each tablet containing 0.1 g active berberine ingredient (berberine hydrochloride), 5 tablets/time, 2 times/day. 4) Control group: the subjects were administered with Bifidobacteria placebo capsules, 0.35 g/capsule, 2 capsules/time, 2 times/day, plus berberine placebo tablets, 0.1 g/tablet, 5 tablets/time, 2 times/day. Bifidobacterium capsules were taken after meals and berberine tablets were taken before meals. Tests of all samples in the study were carried out in a designated laboratory with standardized criteria. Blood analysis covered hundreds of indicators including insulin, amino acids, cytokines etc. After the sample testing was finished, 1) Chi-Squared test and t-test were used to evaluate the intergroup balance of the baseline data including the demographic characteristics and pre-treatment indicators, wherein the baseline data referred to those collected at the second visit, before the formal administration, the data collected at the first visit on the enrollment stage were used instead if the data at the second visit was lacking; 2) two-way disordered CM-CH11, Kruska-Wilcox test, etc. were used for analysis and intergroup comparison of pre- and post-treatment indicators such as fasting plasma glucose (FPG), HbA1c, plasma glucose at 2 hours post OGTT (2-h PPG), blood pressure, blood lipids, body weight and BMI; 3) adverse events and hypoglycemia events were described in terms of the type, frequency and relevance with the drugs, for safety evaluation. Software SAS 9.1.3 was used for statistical analysis with all analysis processes being programmed. […]

| Molecule | Effect on urine ketone body level (in words) | Post-treatment ketone level in urine - pre-treatment ketone level in urine, mean value | Post-treatment ketone level in urine, mean value | Pre-treatment ketone level in urine, mean value |
| --- | --- | --- | --- | --- |
| COc1ccc2cc3[n+](cc2c1OC)CCc1cc2c(cc1-3)OCO2 [Berberine, berberine hydrochloride] | not observed | 0.0526 | 0.0513 | 0.0000 |
| Bifidobacterium | not observed | −0.0909 | 0.0341 | 0.1100 |

Reference: US20220202882A1, “EFFECT OF COMBINATION OF BIFIDOBACTERIUM AND BERBERINE ON PRE-DIABETES AND TYPE 2 DIABETES” (The Fourth Military Medical University, priority 2018, published 2022)
